Measurements published in paper PMC10220285, “Development of an assay pipeline for the discovery of novel small molecule inhibitors of human glutathione peroxidases GPX1 and GPX4” (Redox Biology, 2023).
Like-named read-outs stand apart in the source and are kept apart here.

How the values were obtained:
Format in all cases: biochemical
human TXNRD1 = molecular target: T1, human TXNRD1 (Homo sapiens, UniProt Q16881); test: Thioredoxin reductase 1 (TXNRD1) inhibition assay (selenite reduction); conditions: for inhibition of TXNRD1: Fig. 9 pan-selenoprotein inhibitors
T1 construct: made in house
T1 sequence (Q16881 1-499 isoform Q16881-5): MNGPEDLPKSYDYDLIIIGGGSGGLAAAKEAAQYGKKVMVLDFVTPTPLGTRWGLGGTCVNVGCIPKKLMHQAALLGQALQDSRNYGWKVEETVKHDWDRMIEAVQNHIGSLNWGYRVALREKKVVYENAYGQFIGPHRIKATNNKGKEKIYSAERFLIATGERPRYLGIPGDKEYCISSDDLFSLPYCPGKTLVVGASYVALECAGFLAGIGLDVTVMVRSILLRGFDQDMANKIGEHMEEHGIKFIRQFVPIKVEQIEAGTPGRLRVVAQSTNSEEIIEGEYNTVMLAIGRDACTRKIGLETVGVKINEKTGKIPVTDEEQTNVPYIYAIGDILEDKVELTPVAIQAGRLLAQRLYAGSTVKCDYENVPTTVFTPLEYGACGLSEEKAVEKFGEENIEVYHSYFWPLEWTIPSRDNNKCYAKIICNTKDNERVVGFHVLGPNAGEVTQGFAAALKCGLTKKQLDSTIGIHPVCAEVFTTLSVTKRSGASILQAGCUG
Method: (§1) The compound plates were prepared as described previously. Purified recombinant human GPX1, GPX2, GPX4, GR, and TXNRD1 were produced and purified as previously reported [[48], [49], [50]]. As production of GPX2 was not optimized at the onset of screening, only GPX1 and GPX4 underwent library screening, and GPX2 was used as a follow-up.
(§2) Follow-up and orthogonal assays were run in quadruplicate unless otherwise stated. Assay schemes are illustrated in Fig. 1.
TXNRD1 activity was assessed using a modified 1536-well TXNRD1 inhibition assay, based upon TXNRD1-catalyzed selenite reduction as previously described (Fig. 1D). […] TE buffer was dispensed into column 1 and 2 as a no-enzyme control. Finally, 1 μL of sodium selenite in TE buffer was dispensed into each well for final concentrations of 90 nM hTXNRD1, 0.4 mM NADPH, and 0.4 mM sodium selenite. The plate was read in a Viewlux multimodal detector in kinetic mode and fluorescence at 340 nm/450 nm was measured every minute for 8 min.
(§3) Percent activity was determined by first calculating delta RFU (decrease in fluorescence between t = 0 and t = 20/30 min in primary GPX, GR counter-screen, and TXNRD1 assays, or increase in fluorescence between t = 0 and t = 20 min in the Monobromobimane GPX endpoint assay), and normalizing enzyme activity using median delta RFU values for DMSO-treated enzyme control, and DMSO-treated no-enzyme controls.
(§4) Compound inhibitory activity in the qHTS assays was determined by plotting dose-response data for each sample and fitting with a four-parameter logistic fit to assess IC50 values, efficacy (maximal response), and AUC (area under the curve), as previously described. Hits were classified by the quality of the concentration-response curves (CRC). Curve classes −1.1 and −1.2 being the highest-confidence actives with complete CRCs and classes −2.1 and −2.2 being lower-confidence actives with incomplete CRCs.

human GPX2 = molecular target: T2, human GPX2 (Homo sapiens, UniProt P18283); test: GPX2 activity assay (follow-up isoform specificity); conditions: for inhibition of GPX2: Fig. 9 pan-selenoprotein inhibitors
T2 construct: made in house
T2 sequence (P18283 1-190): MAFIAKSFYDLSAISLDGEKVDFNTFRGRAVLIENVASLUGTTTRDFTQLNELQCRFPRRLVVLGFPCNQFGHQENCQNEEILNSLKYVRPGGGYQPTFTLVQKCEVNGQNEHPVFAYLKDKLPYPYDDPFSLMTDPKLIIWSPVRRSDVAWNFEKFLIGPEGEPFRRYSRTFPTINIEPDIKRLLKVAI
Method: as §1, §2
Previous work has shown similarities in the substrate specificities of GPX1 and GPX2, and a more unique substrate profile of GPX4 [8].
The GPX2 isoform of human selenoprotein GPXs is found in epithelial cells and has similar substrate specificity with GPX1, but not as much with GPX4 [8]. Additionally, GPX1 and GPX2 both form homotetramers and share similarities in structural homology, although GPX2 has a much slower turnover rate.

GPX1 = molecular target: T3, GPX1 (Homo sapiens, UniProt P07203); test: GR-coupled GPX1 activity assay (NADPH fluorescence, CHP substrate); conditions: for inhibition of GPX1: Fig. 9 pan-selenoprotein inhibitors
T3 construct: made in house; host or cells: E. coli
T3 sequence (P07203 1-203): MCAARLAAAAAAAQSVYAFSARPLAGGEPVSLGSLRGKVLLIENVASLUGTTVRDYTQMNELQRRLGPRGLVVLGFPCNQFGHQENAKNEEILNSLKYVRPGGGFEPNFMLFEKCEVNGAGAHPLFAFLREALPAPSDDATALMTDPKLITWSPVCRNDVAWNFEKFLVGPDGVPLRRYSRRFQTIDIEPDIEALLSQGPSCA
Method: as §1, §2
(§5) To measure GPX activity, assays were performed in 1536-well format in black medium-binding solid-bottom plates (Greiner). These assay conditions were optimized for high-throughput screening from an assay first described by Paglia and Valentine. GPX activity is measured indirectly by coupling the reaction with GR whereby GPX reduces hydroperoxide by oxidizing two GSH to GSSG and the oxidized glutathione is recycled to its reduced state by GR and NADPH (Fig. 1B). The rate of consumption of NADPH is directly proportional to the activity of GPX and can be measured by the decrease in fluorescence at 340 nm/450 nm.
(§6) First, 3 μL of enzyme in TES assay buffer (50 mM Tris-HCl, 2 mM EDTA (pH 7.5), 150 mM NaCl with enzyme [10 nM GPX1, 200 nM GPX4 ] and BSA [0.01%]) was added to columns 3–48 of 1536-well plates using a BioRAPTR Flying Reagent Dispenser (Let's Go Robotics (LGR), Carlsbad, CA). A no-enzyme control (0.01% BSA in TES assay buffer) was added to columns 1–2. Compounds (25 nL, library and DMSO controls) were added to each well with a pin tool (Kalypsys), and the plates were incubated for 30 min at room temperature before 1 μL of master mix (100 nM GR, 1 mM GSH, 0.5 mM NADPH in TES buffer) was added. 1 μL of cumene hydroperoxide (CHP) ([0.5 mM] in 50% EtOH) was then added within 5 min to initiate the reaction. Fluorescence at 340/450 nm was measured using a ViewLux multimodal detector (PerkinElmer, Waltham, MA) at initial t = 0 and endpoint t = 15 min (GPX1) or t = 20 min (GPX4).
(§7) Follow-up confirmation assays were also run in 96-well format using medium binding clear 96-well SpectraPlate microplates (PerkinElmer) and NADPH absorbance at 340 nm was measured every 30 s for 30 min using an Infinite® M Nano (Tecan).
as §3, §4

GPX4 = molecular target: T4, GPX4 (Homo sapiens, UniProt P36969); test: GR-coupled GPX4 activity assay (NADPH fluorescence, CHP substrate); conditions: Fig. 9 pan-selenoprotein inhibitors
T4 construct: made in house; host or cells: E. coli
T4 sequence (P36969 1-170 isoform P36969-2): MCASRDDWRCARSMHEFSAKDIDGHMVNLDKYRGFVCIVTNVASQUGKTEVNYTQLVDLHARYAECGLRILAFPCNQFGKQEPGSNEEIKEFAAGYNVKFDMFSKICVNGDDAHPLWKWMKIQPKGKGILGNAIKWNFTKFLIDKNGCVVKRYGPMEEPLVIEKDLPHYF
Method: as §1, §2, §5, §6, §7, §3, §4

[1] = listed as 2,3-dimercaptopropanesulfonic acid

| Compound | inhibition of TXNRD1 (human TXNRD1) | inhibition of TXNRD1 (human TXNRD1; [1]) | inhibition of GPX2 (human GPX2) | inhibition of GPX2 (human GPX2; [1]) | inhibition of GPX1 (GPX1) | inhibition of GPX1 (GPX1; [1]) | inhibition of GPX4 (GPX4) | inhibition of GPX4 (GPX4; [1]) | IC50 (human TXNRD1; IC50 of resulting CRC, Table 2, read-out: IC50 TrxR1) [µM] | IC50 (human GPX2; IC50 of resulting CRC, Table 2) [µM] | IC50 (GPX1; IC50 of resulting CRC, Table 2, read-out: IC50 GPx1) [µM] | IC50 (GPX1; assay validation, Fig. 2E, read-out: IC50, prior art GPX1 inhibitor activities in optimized assay) [µM] | IC50 (GPX1; compound present in the screening libraries (qHTS), read-out: IC50 GPX1, primary library screen) [µM] | IC50 (GPX1; initial tests comparing GR-coupled and mBBr assay formats, read-out: IC50 in the GR-coupled assay) [µM] | hit status in GPX1 qHTS (GPX1; primary library screen) |
| --- | --- | --- | --- | --- | --- | --- | --- | --- | --- | --- | --- | --- | --- | --- | --- |
| O=S(=O)(O)CC(S)CS (stereo not drawn) [2,3-dimercaptopropanesulfonate] | inhibited all tested selenoproteins | inhibited all selenoproteins | inhibited all tested selenoproteins | inhibited all selenoproteins | inhibited all tested selenoproteins | inhibited all selenoproteins | inhibited all tested selenoproteins | inhibited all selenoproteins |  |  |  |  |  |  |  |
| CC(=O)OC[C@H]1O[C@@H]([S-])[C@H](OC(C)=O)[C@@H](OC(C)=O)[C@@H]1OC(C)=O.CCP(CC)CC.[Au+] [Auranofin] |  |  |  |  |  |  |  |  | 19 | 2.1 | 4.6 | 4.84 | 2.26 | 1.94 | high-quality active hit for GPX1 in all three |
